{"source": "paper PMC11093748", "about": "“De novo identification of CD4^+ T cell epitopes” (Nature Methods, 2024)", "assay_type_in_all_cases": "cell-based, mouse", "key": {"TCR4": {"tested_on": "TCR4", "assay": "Single SABR-II co-incubation, NFAT-GFP Jurkat", "details": "TCR 4", "how_it_was_run": "(§1)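 Single SABR-II constructs for putative cognate epitopes were expressed in CellTrace Violet-labelled NFAT–GFP Jurkat cells and co-incubated 1:1 (5 × 10^5 each) with TCR-expressing Jurkat cells for 16–20 h. GFP (with CD69 staining when indicated) was measured by flow cytometry. Wells with GFP above the no-TCR control were scored positive.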"}, "TCR11": {"tested_on": "TCR11", "assay": "Single SABR-II co-incubation, NFAT-GFP Jurkat", "details": "TCR 11", "how_it_was_run": "as §1"}, "TCR30": {"tested_on": "TCR30", "assay": "Single SABR-II co-incubation, NFAT-GFP Jurkat", "details": "TCR 30", "how_it_was_run": "as §1"}, "TCR37": {"tested_on": "TCR37", "assay": "Single SABR-II co-incubation, NFAT-GFP Jurkat", "details": "TCR 37, Fig 3B, 18 h", "how_it_was_run": "as §1"}, "5KC cells, No TCR": {"tested_on": "5KC cells, No TCR", "assay": "mIL-2 ELISA, 5KC cells without TCR with SABR NFAT-GFP Jurkat cells", "details": "murine IL-2 ELISA, 24 hr co-incubation"}, "[1]": {"details": "Fig 3B, 18 h, biological replicate 1"}, "[2]": {"details": "Fig 3B, 18 h, biological replicate 2"}, "[3]": {"details": "Fig 3B, 18 h, biological replicate 3"}}, "data": [{"sequence": "LQTLALNAARDP", "values": [{"measurement": "%GFP+CD69+ cells of SABR-NFAT-GFP-Jurkat cells", "setting": "TCR4; Ext. Data Fig. 6C, 18-20 hr, technical replicate 1", "value": 21.3, "unit": "%"}, {"measurement": "%GFP+CD69+ cells of SABR-NFAT-GFP-Jurkat cells", "setting": "TCR4; Ext. Data Fig. 6C, 18-20 hr, technical replicate 2", "value": 21.3, "unit": "%"}, {"measurement": "%GFP+CD69+ cells of SABR-NFAT-GFP-Jurkat cells", "setting": "TCR4; [1]", "value": 36.63, "unit": "%"}, {"measurement": "%GFP+CD69+ cells of SABR-NFAT-GFP-Jurkat cells", "setting": "TCR4; [2]", "value": 32.63, "unit": "%"}, {"measurement": "%GFP+CD69+ cells of SABR-NFAT-GFP-Jurkat cells", "setting": "TCR4; [3]", "value": 39.93, "unit": "%"}, {"measurement": "%GFP+CD69+ cells of SABR-NFAT-GFP-Jurkat cells", "setting": "TCR4; Fig 4B, technical replicate 1", "value": 25.9, "unit": "%"}, {"measurement": "%GFP+CD69+ cells of SABR-NFAT-GFP-Jurkat cells", "setting": "TCR4; Fig 4B, technical replicate 2", "value": 25.4, "unit": "%"}, {"measurement": "%GFP+CD69+ cells of SABR-NFAT-GFP-Jurkat cells", "setting": "TCR4; Fig 5C, technical replicate 1", "value": 42.4, "unit": "%"}, {"measurement": "%GFP+CD69+ cells of SABR-NFAT-GFP-Jurkat cells", "setting": "TCR4; Fig 5C, technical replicate 2", "value": 42.4, "unit": "%"}]}, {"sequence": "SHLVEALYLVCGERG", "values": [{"measurement": "%GFP+CD69+ cells of SABR-NFAT-GFP-Jurkat cells", "setting": "TCR11; [1]", "value": 7.09, "unit": "%"}, {"measurement": "%GFP+CD69+ cells of SABR-NFAT-GFP-Jurkat cells", "setting": "TCR11; [2]", "value": 7.41, "unit": "%"}, {"measurement": "%GFP+CD69+ cells of SABR-NFAT-GFP-Jurkat cells", "setting": "TCR11; [3]", "value": 7.96, "unit": "%"}, {"measurement": "%GFP+CD69+ cells of SABR-NFAT-GFP-Jurkat cells", "setting": "TCR11; Fig 4B, technical replicate 1", "value": 4.58, "unit": "%"}, {"measurement": "%GFP+CD69+ cells of SABR-NFAT-GFP-Jurkat cells", "setting": "TCR11; Fig 4B, technical replicate 2", "value": 4.07, "unit": "%"}, {"measurement": "%GFP+CD69+ cells of SABR-NFAT-GFP-Jurkat cells", "setting": "TCR30; [1]", "value": 5.68, "unit": "%"}, {"measurement": "%GFP+CD69+ cells of SABR-NFAT-GFP-Jurkat cells", "setting": "TCR30; [2]", "value": 7.14, "unit": "%"}, {"measurement": "%GFP+CD69+ cells of SABR-NFAT-GFP-Jurkat cells", "setting": "TCR30; [3]", "value": 5.4, "unit": "%"}, {"measurement": "%GFP+CD69+ cells of SABR-NFAT-GFP-Jurkat cells", "setting": "TCR30; Fig 4B, replicate 1", "value": 3.98, "unit": "%"}, {"measurement": "%GFP+CD69+ cells of SABR-NFAT-GFP-Jurkat cells", "setting": "TCR30; Fig 4B, replicate 2", "value": 3.65, "unit": "%"}, {"measurement": "%GFP+CD69+ cells of SABR-NFAT-GFP-Jurkat cells", "setting": "TCR30; Fig 4B, replicate 3", "value": 3.27, "unit": "%"}, {"measurement": "%GFP+CD69+ cells of SABR-NFAT-GFP-Jurkat cells", "setting": "TCR37; biological replicate 1", "value": 31.07, "unit": "%"}, {"measurement": "%GFP+CD69+ cells of SABR-NFAT-GFP-Jurkat cells", "setting": "TCR37; biological replicate 2", "value": 38.77, "unit": "%"}, {"measurement": "%GFP+CD69+ cells of SABR-NFAT-GFP-Jurkat cells", "setting": "TCR37; biological replicate 3", "value": 34.13, "unit": "%"}, {"measurement": "IL-2 secretion", "setting": "5KC cells, No TCR; technical replicate 1", "value": 2.192}, {"measurement": "IL-2 secretion", "setting": "5KC cells, No TCR; technical replicate 2", "value": 4.996}]}]}
